Results published in patent US20250236627A1, “CERTAIN OCTAHYDROFURO[3,4- B]PYRAZINES AS GLP-1 RECEPTOR MODULATORS” (ASTRAZENECA AB, priority 2021, published 2025).

Tests used:
[1] = biological target: T1, endogenous human glucagon-like peptide 1 receptor (GLP-1R) (Homo sapiens, UniProt P43220); assay: EndoC cAMP Accumulation Assay; type: cell-based; details: EndoC-βH1 human pancreatic β cell line; HTRF cAMP assay
T1 construct: endogenous human glucagon-like peptide 1 receptor (GLP-1R) in a pancreatic insulinoma cell line; host or cells: EndoC-βH1 human pancreatic β cell line
Method in brief: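 Thawed EndoC-βH1 cells (3000 per well) were stimulated for 30 min at room temperature in HBSS/25 mM HEPES pH 7.4, 0.1% BSA and 0.5 mM IBMX. cAMP was measured by HTRF competitive immunoassay after 1 h. Responses were fitted by 4-parameter logistic as % activation relative to maximal GIP (82.5 nM), with basal cAMP as zero.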

human GLP-1R receptor = biological target: T2, human GLP-1R receptor (Homo sapiens, UniProt P43220, L260F); assay: CHOK1 GLP-1R cAMP Assay; type: cell-based; details: CHO-K1 cell line stably expressing human GLP-1R; HTRF cAMP detection
T2 construct: expressed in transfected cells; host or cells: CHO-K1 (ATCC CCL-61)
Method in brief: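 CHO-K1 cells, 800/well, stimulated 20 min at room temperature with compound in HEPES pH 7.4/HBSS/0.1% BSA plus IBMX (1 mM in the added buffer). cAMP measured by HTRF competitive immunoassay after ≥1 h, converted to pM via standard curve. EC50 from 4-parameter logistic fit; % effect relative to saturating GLP1(7-36)NH2.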

[2] = biological target: T3, human phosphodiesterase-3A (Homo sapiens, UniProt Q14432); assay: PDE3 Assay; type: biochemical; details: human recombinant enzyme expressed in Sf9 cells; formation of 5′AMP from cAMP
T3 construct: host or cells: Sf9 cells
Protocol: Evaluation of the effects of compounds on the activity of the human phosphodiesterase-3A is quantified by measuring the formation of 5′AMP from cAMP using a human recombinant enzyme expressed in Sf9 cells.
The test compound, reference compound or water (control) are added to a buffer containing 40 mM Tris/HCl (pH 7.4) and 8 mM MgCl2, 450 nM cAMP and 0.25 μCi [^3H]cAMP.
Thereafter, the reaction is initiated by addition of the enzyme (about 1 U) and the mixture is incubated for 20 min at 22° C.
For basal control measurements, the enzyme is omitted from the reaction mixture.
Following incubation SPA beads are added. After 30 min at 22° C. under shaking, the amount of [^3H]5′AMP is quantified with a scintillation counter (Topcount, Packard).
The results are expressed as a percent inhibition of the control enzyme activity. The standard inhibitory reference compound is milrinone (CAS number 78415-72-2), which is tested in each experiment at several concentrations to obtain an inhibition curve from which its IC50 value is calculated.

T2 sequence (P43220 24-463 L260F): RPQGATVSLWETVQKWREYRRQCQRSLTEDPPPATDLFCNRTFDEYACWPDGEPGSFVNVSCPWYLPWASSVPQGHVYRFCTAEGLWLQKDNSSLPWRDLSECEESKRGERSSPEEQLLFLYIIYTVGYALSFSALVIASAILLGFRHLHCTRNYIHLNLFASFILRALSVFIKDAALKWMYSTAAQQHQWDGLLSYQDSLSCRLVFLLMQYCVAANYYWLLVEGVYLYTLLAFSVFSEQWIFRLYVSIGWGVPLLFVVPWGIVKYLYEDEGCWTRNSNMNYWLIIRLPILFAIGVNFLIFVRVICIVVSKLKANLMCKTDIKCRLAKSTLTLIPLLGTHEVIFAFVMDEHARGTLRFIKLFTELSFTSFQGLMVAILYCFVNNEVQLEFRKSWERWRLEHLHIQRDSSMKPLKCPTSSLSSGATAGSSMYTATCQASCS
T3 sequence (Q14432 whole entry): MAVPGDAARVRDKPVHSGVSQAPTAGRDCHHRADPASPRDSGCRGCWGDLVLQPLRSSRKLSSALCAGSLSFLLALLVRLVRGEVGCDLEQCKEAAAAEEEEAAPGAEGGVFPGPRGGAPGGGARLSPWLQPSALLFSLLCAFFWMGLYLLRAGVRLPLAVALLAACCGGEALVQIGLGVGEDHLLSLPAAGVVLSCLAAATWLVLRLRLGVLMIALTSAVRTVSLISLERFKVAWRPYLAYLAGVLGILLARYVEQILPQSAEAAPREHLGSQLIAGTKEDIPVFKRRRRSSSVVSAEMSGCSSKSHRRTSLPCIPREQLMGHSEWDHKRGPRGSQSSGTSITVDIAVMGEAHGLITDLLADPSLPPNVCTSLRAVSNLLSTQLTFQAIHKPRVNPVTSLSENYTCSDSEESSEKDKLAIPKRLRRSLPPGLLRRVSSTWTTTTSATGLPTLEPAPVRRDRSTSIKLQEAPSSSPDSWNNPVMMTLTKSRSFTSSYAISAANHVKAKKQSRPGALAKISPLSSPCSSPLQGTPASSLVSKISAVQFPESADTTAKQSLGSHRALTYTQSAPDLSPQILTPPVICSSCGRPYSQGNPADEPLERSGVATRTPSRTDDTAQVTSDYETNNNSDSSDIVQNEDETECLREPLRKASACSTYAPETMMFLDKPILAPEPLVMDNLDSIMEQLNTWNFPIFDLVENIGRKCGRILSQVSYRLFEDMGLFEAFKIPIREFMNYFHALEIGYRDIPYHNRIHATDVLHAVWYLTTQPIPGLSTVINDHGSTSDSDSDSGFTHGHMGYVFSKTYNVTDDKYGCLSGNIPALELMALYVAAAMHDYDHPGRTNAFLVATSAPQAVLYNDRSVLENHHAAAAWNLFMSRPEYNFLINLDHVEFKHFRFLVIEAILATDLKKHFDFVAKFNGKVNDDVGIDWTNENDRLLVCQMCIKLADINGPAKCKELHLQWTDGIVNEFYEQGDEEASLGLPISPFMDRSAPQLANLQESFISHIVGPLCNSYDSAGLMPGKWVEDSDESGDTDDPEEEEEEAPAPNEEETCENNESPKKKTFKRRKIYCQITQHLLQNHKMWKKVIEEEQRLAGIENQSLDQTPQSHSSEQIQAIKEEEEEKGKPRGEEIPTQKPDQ
T1 sequence (P43220 24-463): as the sequence (P43220 24-463 L260F) above, with F237L counted along it

C[C@]1(c2ccc(Cl)cc2F)Oc2cccc(N3CCN(Cc4nc5ccc(C(=O)O)cc5n4C[C@@H]4CCO4)[C@H]4COC[C@H]43)c2O1 (single isomer, unassigned) [Example 6a, 2-(((4aR*,7aS*)-4-((R*)-2-(4-Chloro-2-fluorophenyl)-2-methylbenzo[d][1,3]dioxol-4-yl)hexahydrofuro[3,4-b]pyrazin-1(2H)-yl)methyl)-1-(((S)-oxetan-2-yl)methyl)-1H-benzo[d]imidazole-6-carboxylic acid]
EC50 [1]: 0.92 nM | EC50 (human GLP-1R receptor): 1.5 nM | IC50 [2]: > 100000 nM

C[C@]1(c2ccc(Cl)cn2)Oc2cccc(N3CCN(Cc4nc5ccc(C(=O)O)cc5n4C[C@@H]4CCCO4)[C@H]4COC[C@H]43)c2O1 (single isomer, unassigned) [Example 8a, 2-(((4aR*,7aS*)-4-((R*)-2-(5-Chloropyridin-2-yl)-2-methylbenzo[d][1,3]dioxol-4-yl)hexahydrofuro[3,4-b]pyrazin-1(2H)-yl)methyl)-1-(((S)-tetrahydrofuran-2-yl)methyl)-1H-benzo[d]imidazole-6-carboxylic acid]
EC50 [1]: 17 nM | EC50 (human GLP-1R receptor): 15 nM | IC50 [2]: > 100000 nM

C[C@]1(c2ccc(Cl)cn2)Oc2cccc(N3CCN(Cc4nc5c(F)cc(C(=O)O)cc5n4C[C@@H]4CCO4)[C@H]4COC[C@H]43)c2O1 (single isomer, unassigned) [Example 9a, 2-(((4aR*,7aS*)-4-((R*)-2-(5-Chloropyridin-2-yl)-2-methylbenzo[d][1,3]dioxol-4-yl)hexahydrofuro[3,4-b]pyrazin-1(2H)-yl)methyl)-4-fluoro-1-(((S)-oxetan-2-yl)methyl)-1H-benzo[d]imidazole-6-carboxylic acid]
EC50 [1]: 3.9 nM | EC50 (human GLP-1R receptor): 1.5 nM | IC50 [2]: > 100000 nM

C[C@]1(c2ccc(Cl)cn2)Oc2cccc(N3CCN(Cc4nc5c(F)cc(C(=O)O)cc5n4C[C@@H]4CCO4)[C@H]4COC[C@H]43)c2O1 (single isomer, unassigned) [Example 9d, 2-(((4aR*,7aS*)-4-((R*)-2-(5-Chloropyridin-2-yl)-2-methylbenzo[d][1,3]dioxol-4-yl)hexahydrofuro[3,4-b]pyrazin-1(2H)-yl)methyl)-4-fluoro-1-(((S)-oxetan-2-yl)methyl)-1H-benzo[d]imidazole-6-carboxylic acid]
EC50 [1]: 2100 nM | EC50 (human GLP-1R receptor): 320 nM | IC50 [2]: > 100000 nM

C[C@]1(c2ccc(Cl)cn2)Oc2cccc(N3CCN(Cc4nc5c(F)cc(C(=O)O)cc5n4CC4(CC#N)CC4)[C@H]4COC[C@H]43)c2O1 (single isomer, unassigned) [Example 21]
EC50 [1]: 3 nM | EC50 (human GLP-1R receptor): 3 nM | IC50 [2]: > 100000 nM

C[C@]1(c2ccc(Cl)cn2)Oc2cccc(N3CCN(Cc4nc5c(F)cc(C(=O)O)cc5n4CC4(C#N)CC4)[C@H]4COC[C@H]43)c2O1 (single isomer, unassigned) [Example 22a]
EC50 [1]: 3.2 nM | EC50 (human GLP-1R receptor): 2.7 nM | IC50 [2]: > 100000 nM

C[C@]1(c2ccc(Cl)cn2)Oc2cccc(N3CCN(Cc4nc5c(Cl)cc(C(=O)O)cc5n4CC4(C#N)CC4)[C@H]4COC[C@H]43)c2O1 (single isomer, unassigned) [Example 23a]
EC50 [1]: 5 nM | EC50 (human GLP-1R receptor): 1.8 nM | IC50 [2]: > 100000 nM

C[C@]1(c2ccc(Cl)cn2)Oc2cccc(N3CCN(Cc4nc5ccc(C(=O)O)cc5n4CC4(CC#N)CC4)[C@H]4COC[C@H]43)c2O1 (single isomer, unassigned) [Example 25]
EC50 [1]: 8 nM | EC50 (human GLP-1R receptor): 5.1 nM | IC50 [2]: > 100000 nM
